Test results: the METLIN SMRT retention time set (Domingo-Almenara et al. 2019)

Assay: gradient 5% acetonitrile 3 min, to 50% in 2 min, to 85% in 15 min, held 3 min, 100 µL/min
Details: column: Zorbax Extend-C18 2.1 x 50 mm; eluents: water / acetonitrile, 0.1% formic acid
Procedure, shortened: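 Using water and acetonitrile that each contained 0.1% formic acid, mixtures of ~100 pure standards were separated at 100 μL/min on a Zorbax Extend-C18 column (2.1 × 50 mm, 1.8 μm). The HPLC fed a quadrupole time-of-flight mass spectrometer working in positive and negative ionization mode, with dead and dwell volumes of 40 μL and 900 μL. Data were acquired over 3 months. Retention time was read from computationally picked adduct peaks after manual inspection of each.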

Row | Compound | RP-LC retention time
1 | O=C(Cn1ncccc1=O)Nc1nccs1 | 554 s
2 | O=C(NCc1cccs1)NCC1CC(=O)N(Cc2ccc(F)cc2)C1 (centres undefined) | 656 s
3 | CCOC(=O)C1CCN(C(=O)CN2C(=O)COc3ccc(C(=O)N(C)C)cc32)CC1 | 648 s
4 | CC1CN(Cc2nc3c(c(=O)n(C)c(=O)n3C)n2Cc2ccccc2Cl)CC(C)O1 (centres undefined) | 751 s
5 | Cc1noc(C2CN(C(=O)c3ccc(=O)n(C)n3)C2)n1 | 530 s
6 | CC(C)(C)n1ncc2c(=O)n(NC(=O)c3cc(=O)c4ccccc4o3)cnc21 | 713 s
7 | CCc1nc2cc(-c3noc(-c4sccc4C)n3)ccc2o1 | 1210 s
8 | CCOC(=O)C1CC(C)=C(C)CC1C(=O)O (centres undefined) | 854 s
9 | COc1cc(OC)c(OC)cc1CC1C(=O)Nc2ccccc21 (centres undefined) | 770 s
10 | C(=C\c1ccccc1)/CN1CCN(C(c2ccccc2)c2ccccc2)CC1 | 972 s
11 | COc1ccc(CN2C=C(C(=O)OCc3cccc(OC)c3)C(C)=NS2(=O)=O)cc1 | 1100 s
12 | COc1ccc(/C=C2\N=C(c3ccccc3)OC2=O)c(OCc2ccccc2)c1 | 981 s
13 | CCC1CCCCN1CCCNC(=O)C1CCN(c2ncnc3onc(C)c23)CC1 (centres undefined) | 579 s
14 | Cc1c(C)n(CCCN2CCOCC2)c2ncn3nc(C(C)N4C(=O)c5ccccc5C4=O)nc3c12 (centres undefined) | 662 s
15 | Cn1cc(CN2C[C@@H](COc3cccnc3)[C@H](c3ccccn3)C2)cn1 | 528 s
16 | COc1ccc2nc(C(=O)NCc3ccc(F)cc3)cn2n1 | 783 s
17 | NCC(=O)c1cccc2ccc[n+]([O-])c12 | 678 s
18 | CNS(=O)(=O)c1cc(-c2nnc(-c3ccccc3)o2)ccc1OC | 786 s
19 | CCN1C(=O)COc2ccc(-c3nc(NC(=O)c4ccc(F)cc4)sc3C)cc21 | 1050 s
20 | O=C(NCc1csc(-c2ccccc2)n1)[C@H]1CCCN1C(=O)c1ccc(Br)cc1 | 866 s
21 | CCC(=O)Nc1ccc(-n2cnc(C(=O)NC3CCCCCC3)c2)nc1 | 759 s
22 | O=C(CSc1nc2ncccc2[nH]1)NC1CCCC1 | 585 s
23 | COc1ccc(C2Cn3nnc(-c4nc(-c5ccccc5Cl)no4)c3CO2)cc1 (centres undefined) | 1150 s
24 | CCOCC(=O)Nc1ccc2c(c1)Sc1ncccc1C(=O)N2CC | 697 s
25 | CCOC(=O)c1cnc2c(-c3ccc(Cl)cc3)c(CC)nn2c1N | 1280 s
26 | Cc1ccc(-c2nocc2CCC(=O)NCc2ccccc2)cc1 | 910 s

Row | Compound | RP-LC retention time
27 | COc1ccc(NC(=O)Cn2nc3c(Oc4ccccc4Cl)nccn3c2=O)cc1 | 859 s
28 | O=C(NCCc1ccco1)c1ccc2cnn(Cc3ccc(F)cc3)c2c1 | 873 s
29 | O=C(CC(c1ccccc1)c1ccccc1)N(Cc1ccsc1)Cc1ccccn1 | 857 s
30 | CC(=O)N1CCC(n2c(C)nc(C(=O)Nc3ccc4c(c3)OCCO4)c2C)CC1 | 612 s
31 | CCc1onc(C)c1C1CCCN1C(=O)Nc1ccc(OC)c(OC)c1 (centres undefined) | 796 s
32 | O=C(Nc1ccc2c(c1)Cc1ccccc1-2)c1csc(Nc2ncccn2)n1 | 972 s
33 | COc1ccc(C(=O)Nc2nnc(SCc3nnc(-c4ccccc4)o3)s2)cc1OC | 830 s
34 | Cc1cc(CNC(=O)NC(C)(C)C)on1 | 636 s
35 | CCOc1ccc(NC(=O)c2cnc3c(c2)c(=O)n(C)c(=O)n3-c2ccc(F)cc2)cc1 | 866 s
36 | COc1ccc(OCc2ccc(C(=O)Nc3cc4c(cc3C(C)=O)OCO4)o2)cc1 | 1060 s
37 | CCc1noc(-c2ccc(=O)n(CC(=O)Nc3ccc(F)cc3)c2)n1 | 1020 s
38 | CCNC(=O)N1CCC(OC(C)=O)CC1 | 586 s
39 | Cc1cc(C)cc(NC(=O)Cn2c(C)cc(-c3nnc(C)o3)c2C)c1 | 843 s
40 | CC(NC(=O)c1c(O)c2cccnc2n(-c2cccc(F)c2)c1=O)c1ccc(F)cc1 (centres undefined) | 1210 s
41 | Cc1cc(C)cc(N2CCC(NC(=O)Nc3cccc(C)c3C)C2=O)c1 (centres undefined) | 922 s
42 | Cc1nn(CC(=O)NCCN(C)Cc2ccccc2)c(=O)c2noc(C)c12 | 595 s
43 | O=C(Nc1nc(-c2ccc(Cl)cc2)cs1)c1ccc2c(c1)OCO2 | 1110 s
44 | Cc1c(C(=O)N2CCCC(C)C2)sc2ncn(CC(=O)N3CC(C)CC(C)C3)c(=O)c12 (centres undefined) | 966 s
45 | CCOc1ccc(CNC2CCN(c3ccc(C(=O)NC4CC4)cn3)C2)cc1 (centres undefined) | 578 s
46 | Cc1noc(C)c1S(=O)(=O)NCC1CCN(S(=O)(=O)C2CC2)CC1 | 709 s
47 | CO[C@H]1CN(C(C)C)[C@H]1C1CCN(C(=O)C2CCC2)CC1 | 574 s
48 | Cc1nc(-c2noc(-c3ccccc3)n2)cn1CC(=O)Nc1ccc2c(c1)OCO2 | 803 s
49 | Cc1ccccc1NC(=O)N1c2ccccc2NC2=C(C(=O)CCC2)C1c1ccco1 (centres undefined) | 817 s
50 | Cc1ccc(S(=O)(=O)CCc2noc(C(=O)NCCc3ccc(S(N)(=O)=O)cc3)n2)cc1 | 724 s
51 | O=C(NCc1cccs1)c1ccc2c(c1)CC(=O)N2Cc1ccc(F)cc1 | 840 s

Other lines, results leading:

Row | RP-LC retention time | Compound
52 | 578 s | O=C(c1cccc(N2CCCS2(=O)=O)c1)N1CCN(c2ccccn2)CC1
53 | 889 s | CCOc1ccccc1NC(=O)N1CCC(n2cnc3c(Cl)cccc3c2=O)CC1
54 | 972 s | CCS(=O)(=O)Nc1ccc(C2(C(=O)NCc3ccc(F)cc3F)CCCCC2)cc1
55 | 725 s | Cc1ccc(NC(=O)C2CCCN(c3cc(=O)n(C)c(=O)n3C)C2)cc1 (centres undefined)
56 | 924 s | CCOCCCNC(=O)c1nnc(-c2ccc(S(=O)(=O)N3CCC(C)CC3)cc2)o1
57 | 687 s | COc1cccc(NC(=O)N2CCN(c3cc(C)nc(Nc4ccc(C)cc4)n3)CC2)c1
58 | 948 s | CC(C)c1ccc(NC(=O)C2CCCN2S(=O)(=O)c2cc3c(cc2Cl)NC(=O)CO3)cc1 (centres undefined)
59 | 766 s | CCOC(=O)c1c(S(=O)(=O)N2CCC(C(=O)NC3CCCC3)CC2)c(C)n(C)c1C
60 | 1050 s | Cc1ccccc1CN1N=C(C(=O)N2CCC(C)CC2)S(=O)(=O)c2ccccc21
61 | 666 s | CCn1c(SCC(=O)N2CCCC2)nnc1-c1ccc2c(c1)OCCCO2
62 | 629 s | CCOC(=O)C1CCCN(C(=O)c2ccc(SCCN3CCCCC3)nc2)C1 (centres undefined)
63 | 980 s | CCCn1cc(S(=O)(=O)Nc2ccc(Cl)cc2F)c2cccnc21
64 | 899 s | O=C(NC1CC1)c1ccc(OCC2CCN(C(=O)c3ccc(C(F)(F)F)cc3)CC2)cc1
65 | 720 s | CC1(C(=O)NCc2ccccc2)Cn2cnc(C(=O)N3CCc4ccccc43)c2C(=O)N1C1CC1 (centres undefined)
66 | 754 s | CCN1CCCn2cc(S(=O)(=O)Nc3ccc(C)c(F)c3)cc2C1=O
67 | 1170 s | Cc1sc(-c2nc(C(C)C)cs2)cc1S(=O)(=O)Nc1ccccc1F
68 | 558 s | Cc1cc(N2CCN(C(=O)c3ccccc3)CC2)nc2nncn12
69 | 678 s | Cc1ccccc1-c1nc2cnccn2c1NCCC(=O)NC1CCCCC1
70 | 644 s | O=C(C1CCN(c2ccc(Sc3ccc(Cl)cc3)nn2)CC1)N1CCN(c2ccccn2)CC1

Row | RP-LC retention time | Compound
71 | 758 s | O=C(NCC1CC1)C1CCN(C(=O)c2ncn3c2COC(c2ccc(Cl)cc2)C3)CC1 (centres undefined)
72 | 861 s | COc1ccccc1-c1cc(C(=O)N2CCN(c3cc(=O)n(C(C)C)c(=O)n3C(C)C)CC2)[nH]n1
73 | 961 s | Cn1cc(S(=O)(=O)N2CCCCC2)cc1C(=O)N1CCN(c2ccccc2F)CC1
74 | 882 s | CCOC(=O)c1cnc(NC(=O)c2ccc(S(=O)(=O)N3CCCCC3)cc2)s1
75 | 773 s | O=C(c1ccc2cc[nH]c2c1)N1CCN(C(=O)c2nnn3c2COC(c2ccccc2)C3)CC1 (centres undefined)
76 | 984 s | COC(=O)c1ccc(NC(=O)C2CCCN(S(=O)(=O)c3cc(-c4noc(C)n4)cs3)C2)cc1 (centres undefined)
77 | 863 s | COc1ccccc1C(=O)N1CCC2(CC1)N=C(c1ccc(Br)cc1)C(=O)N2
78 | 1030 s | Cc1ccc2c(c1)N(S(C)(=O)=O)CCC(C(=O)Nc1ccccc1Cl)O2 (centres undefined)
79 | 819 s | COc1ccccc1NC(=O)Cn1nc(N2CCOCC2)c2ccccc2c1=O
80 | 575 s | CN(C)C[C@@H]1CN(S(C)(=O)=O)C[C@H]1NC(=O)Cn1c(=O)oc2ccccc21
81 | 802 s | Cc1cc(C2CCCN2C(=O)Nc2ccccc2Cl)no1 (centres undefined)
82 | 1000 s | CCc1ccc(N2C(=O)CN(S(C)(=O)=O)CC2(C)C(=O)NC2CCCCCCC2)cc1 (centres undefined)
83 | 559 s | CC(=O)N1CCCc2cc(S(N)(=O)=O)ccc21
84 | 683 s | Cn1c(=O)c2ccn(CC(=O)N3CCN(c4ccc(F)cc4)CC3)c2n(C)c1=O
85 | 770 s | COc1ccc(C2CCCN2C(=O)c2nn(C)cc2Cl)cc1 (centres undefined)
86 | 903 s | Cc1ccccc1OCC(=O)N1CC2CN(S(=O)(=O)c3ccc(F)cc3)CC(C1)O2
87 | 667 s | COc1ccc(NC(=O)C2CCCN(c3nnc4c(Cl)cccn34)C2)cc1OC (centres undefined)
88 | 1140 s | COc1ccc(S(=O)(=O)N2CCC(c3noc(-c4ccccc4)n3)CC2)cc1Cl
89 | 849 s | O=C(CCn1c(N2CCCC2)nc2ccsc2c1=O)N1CCN(c2ccccc2F)CC1
